| melting point [°C] | SMILES |
| --- | --- |
| 88 to 91 | N#CC(c1ccccc1)(c1ccccc1)[C@H]1CCCN(CCc2ccc3c(c2)CCC3)C1 |
| 189 to 191 | CCn1nc(-c2cccc(Cl)c2)c(C(C)=O)c(Nc2cccc3cnccc23)c1=O |
| 62 to 64 | C=CCCCCCCCCCCCCCCCCCCCCO |
| 225 to 226 | O=C(O)C1=Cc2cc(Cl)c(I)cc2OC1C(F)(F)F (stereo not drawn) |
| 129 to 130 | CCOC(=O)CN1CC(=O)N(C)c2ccc([N+](=O)[O-])cc2C1=O |
| 149 to 150 | C#Cc1cnc2ccc(OC(SC)C(=O)NC(C)(C#C)CO)cc2c1 (stereo not drawn) |
| 142 to 143 | COC(=O)C1=Cc2cc(-c3ccc(OC(F)(F)F)cc3)ccc2S(=O)(=O)CC1 |
| 171 to 172 | CC(F)(F)c1ccc(Oc2ccc(C3CCCN4CCS(=O)(=O)N=C34)cc2)cc1 (stereo not drawn) |
| 143 to 144 | COc1ccc(-c2cnc3ccc(-c4nnc(SCc5cccc(C#N)c5)o4)cn23)cc1 |
| 145 to 147 | CCS(=O)(=O)N[C@H](C(=O)NCCc1cc(Br)c(O)c(OC)c1)C(C)C |
| 124 to 125 | O=C(N1CCN(c2ccccc2)CC1)N1CC(Oc2ccc(F)cc2)C1 |
| 185 to 187 | COc1ccc2c(c1OC)CCC1CNC(=O)C21 (stereo not drawn) |
| 289 | O=C(c1ccc2nc[nH]c(=O)c2c1)c1ncc2ccccn12 |
| 151 | CC(=O)C(=O)Nc1ccc(Cl)cc1 |
| 146 to 148 | COc1ccc(C2(COc3cccc4cc(NS(=O)(=O)C(F)(F)F)ccc34)N=CNO2)cc1 (stereo not drawn) |
| 160 to 162 | CCc1cc(N(C=O)c2ccccc2)cc(CC)c1N(C(N)=S)C(C)(C)C |
| 253 to 255 | CC12CCC(C(=O)O)=CC1=CCC1C2CCC2(C)C(C(=O)N(C(=O)NC3CCCCC3)C3CCCCC3)CCC12 (stereo not drawn) |
| 70 to 73 | CCOC(=O)c1ccc([N+](=O)[O-])cc1F |

| melting point [°C] | SMILES |
| --- | --- |
| 253 to 254 | CCc1[nH]nc2c1C(=O)c1c(NC(=O)NN3CCOCC3)cccc1-2 |
| 303 to 308 | COc1ccc(-c2cc(=O)cc(C(N)=O)o2)cc1 |
| 135 to 138 | CCOC(=O)CNc1ccc(NS(C)(=O)=O)cc1 |
| 266 to 267 | COc1cc(OC)c2c(=O)[nH]c(-c3ccc(OC)c(-c4ccc(S(C)=O)cc4)n3)nc2c1 (stereo not drawn) |
| 250 to 253 | CCn1cc(C(=O)O)c(=O)c2cc(F)c(N3CC4CCC3CN4)nc21 (stereo not drawn) |
| 59 to 61 | C[Si](C)(C)OC(CCl)(Cn1cncn1)c1ccc(F)cc1F (stereo not drawn) |
| 130 to 132 | O=c1ccc(-c2c(-c3ccccc3)nn3ccccc23)nn1Cc1nccs1 |
| 249 to 251 | COc1ccc(-n2c(=O)c(C(=O)C3=C(O)CCCC3=O)nc3c(Cl)cccc32)cc1 |
| 61 to 62 | CCCCC(=O)Nc1c(C(=O)OC)cccc1[N+](=O)[O-] |
| 127 to 129 | CCOc1ccc2c(c1)C(=O)N(c1ccc3sccc3c1)C2 |
| 185 to 190 | NS(=O)(=O)c1ccc(NC(=O)CCl)cc1C(F)(F)F |
| 63 to 67 | CC(C)(C)C(O)(CCC1CCCCC1)Cn1cncn1 (stereo not drawn) |
| < 50 | COC(=O)C1=C(C)NC(C)=C(C(=O)OCCCOc2ccc(CCO)cc2)C1c1cccc([N+](=O)[O-])c1 (stereo not drawn) |
| 129 to 130 | COC(=O)CN(C)CC(=O)Nc1cccc2c1C(=O)c1c(NC(=O)CN(C)CC(=O)OC)cccc1C2=O |
| 236 | CS(=O)(=O)c1ccc(C(=O)N[C@H]2CC[C@H](CCN3CCC(c4cccc5c4CCO5)CC3)CC2)cc1 |
| 256 to 259 | CNC(=O)C1=C(C)OC(C)=C(C(=O)NC)C1c1ccc(Cl)cc1 |
| 90 to 91 | Cc1cc(C)c(S(=O)(=O)ON)c(C)c1 |

| SMILES | melting point [°C] |
| --- | --- |
| O=C(c1ccccc1)N1CC2C(C1)C2N(C(=O)c1ccccc1)c1ncc2cc(-c3ccccc3Cl)c(=O)n(C3CC3)c2n1 (stereo not drawn) | 124 to 130 |
| O=C(O)CNC(=O)c1c(O)n(C2CCCCC2)c(=O)n(C2CCCC2)c1=O | 222 to 224 |
| CC(C)(C)OC(=O)NCC12CCC1CNC2 (stereo not drawn) | 83 to 86 |
